Laboratory results published in patent publication US20070021329A1, “Treatment of hypersensitivity conditions” (THE University of QUEENSLAND, priority 2002, published 2007).

What was measured:
[1] = system: circulating TNFα; assay: Reverse passive dermal Arthus reaction in the rat: serum TNFα ELISA; format: in vivo; details: intravenous, oral and topical pretreatment, FIG. 2
Protocol: (§1) The lateral surfaces of the rat were carefully shaved and 5 distinct sites on each lateral surface clearly delineated. A reverse passive Arthus reaction was induced in each dermal site by injecting Evans blue (15 mg kg^−1 i.v.), chicken ovalbumin (20 mg kg^−1 i.v.) into the femoral vein 10 min prior to the injection of antibody. Rabbit anti-chicken ovalbumin (saline only, 100, 200, 300 or 400 μg antibody in a final injection volume of 30 μL) was injected in duplicate at two separate dermal sites on each lateral surface of the rat, giving a total of 10 injection sites per rat. Rats were placed on a heating pad, and anaesthetic was maintained over a 4 h-treatment period with periodic collection of blood samples. Blood was allowed to spontaneously clot on ice, and serum samples were collected and stored at −20° C. […] Additionally, a second set of skin samples were placed in 1 mL of formamide overnight, and the absorbance of Evans blue extraction measured at 650 nm, as an indicator of serum leakage into the dermis. […] Data are shown as absorbance at 650nm as a percentage of the plasma absorbance, as mean values ±SEM (n=3-6). *indicates a P value ≦0.05 when compared to Arthus control values. […]
Serum TNFα concentrations were measured using an enzyme-linked immunosorbent assay (ELISA) kit (Strachan et al., 2000). […]

[2] = system: feline asthma; assay: Treatment of asthma in a tiger cub; format: in vivo, Bengal Tiger; details: for response of respiratory clinical signs to bronchodilators: terbutaline 0.3 mg/kg orally, Ventolin puffer 100 μg by inhalation
Protocol: Respiratory problems were first noticed in Kaasha, a female Bengal Tiger cub at the Dreamworld park, Australia, at the age of 10 weeks and around 10 kg body weight.
Approximately three weeks after initial clinical signs, the treatment included Clavulox (7 mg/kg administered subcutaneously), doxycycline (5 mg/kg administeredorally), and enrofloxacin (5 mg/kg administered subcutaneously) and terbutaline (0.3 mg/kg administered orally), nebulisation (saline) and percussion, use of Ventolin 100 μg by puffer inhalation and terbutaline (0.3 mg/kg administered orally) as necessary to control dyspnoea. Prednisolone was given as a single daily dose of 2 mg/kg, and Seretide (Salmeterol 50 μg plus fluticasone 250 μg) was given using a mask and spacer. […] This combination of treatment was maintained over the next month.
Consequently an experimental technique involving direct injection of Prednisolone sodium succinate, 1200 mg in a total volume of 30 ml (40 mg/ml aqueous solution), was instilled into the trachea under general anaesthesia.
Three weeks after the intra-airway steroid procedure, another experimental therapy was applied. […] (1) were administered at a dose rate of 0.3 mg/kg as single daily subcutaneous injections for six days, followed by twice-weekly injections for 8 weeks. At this time the dose of oral corticosteriod, Prednisolone approx 1 mg/kg reducing, had been reduced to 20 mg per day because of concern regarding side effects of prolonged high dose use.

[3] = system: allergic dermatitis; assay: Treatment of allergic/atopic dermatitis in dogs; format: in vivo, dog
From the text: Because of the intermittent nature of the lameness the owner, a veterinarian, found it difficult to assess any improvement.
A very old dog (estimated age 13-16 years) admitted to a pound was diagnosed as having severe atopic dermatitis affecting 100% of the skin and the inside of the ear pinnae (otitis external, and keratoconjunctivitis sicca (“dry eye”). The dog had broken skin over the dorsum of the tail, and both eyes were encrusted with yellow exudate.
The sores on the tail resolved within 3 days.

[4] = system: dermal Arthus reaction; assay: Reverse passive dermal Arthus reaction in the rat: pathology assessment (PMN infiltration score); format: in vivo; details: intravenous, oral and topical pretreatment, FIG. 3
Protocol: as §1, with “samples.” for “samples. Blood was allowed to spontaneously clot on ice, and serum samples were collected and stored at −20° C.”
Rat skin samples were fixed in 10% buffered formalin for at least 10 days, and stained with haematoxylin and eosin using standard histological techniques. Dermal samples were analysed in a blind fashion for evidence of pathology, and the degree of rat PMN infiltration was scored on a scale of 0-4. […]

[5] = system: dermal Arthus reaction; assay: Reverse passive dermal Arthus reaction in the rat: vascular leakage (Evans blue); format: in vivo; details: intravenous, oral and topical pretreatment, FIG. 1
Protocol: (1) by oral gavage (10 mg kg^−1 dissolved in 10% ethanol/90% saline solution to a final volume of 200 μl) or an appropriate oral vehicle control 30 min prior to deposition of antibody. Female Wistar rats (150-250 g) were anaesthetised with ketamine (80 mg kg^−1 i.p.) and xylazine (12 mg kg^−1 i.p.).
as §1, with “samples.” for “samples. Blood was allowed to spontaneously clot on ice, and serum samples were collected and stored at −20° C.”

[6] = dog, in vivo, sc
From the text: (§2) Blood samples were collected after 4 weeks of treatment. […] Biochemistry and haematology was repeated on the high-dose dog at this time.
(§3) The second dog was bled for haematology and biochemistry after a total of seven weeks treatment.

[7] = system: equine receptor; assay: Binding to equine C5a receptor; set-up: species or system horse
[8] = system: demodectic dermatitis (Demodex canis infestation); assay: Treatment of flea allergy dermatitis and demodectic dermatitis in dogs; format: in vivo, dog
From the text: Demodex, also known as demodectic mange or red mange, is an infestation of the skin caused by the mite Demodex canis which causes dermatitis, skin thickening and hair loss, and is very common in dogs. This condition is thought to be due partially to impaired immune responses in the host. It is often associated with flea infestation, which itself can cause an allergic dermatitis. The skin irritation in infected animals is sometimes very extensive, and results in loss of hairs and severe skin rashes. […] (b) A mastiff pup (approximately 6 months old) was diagnosed as having demodex infestation (folliculitis) of the head, involving both eyelids. […] The eyes were red and discharging, and the dog squinted because of the ocular pain. […] This was applied to the eyelid lesion so that the lesion was wet, and was also instilled into the eyes. […] This was considered to be a very significant clinical response.

[9] = Safety observations in dogs treated with PMX53 (haematology, biochemistry, autopsy, injection site); details: both dogs; duration of the experiment
From the text: as §2, §3

[10] = system: feline C5a receptor; assay: Binding to feline C5a receptor; set-up: species or system cat
[11] = old dog, topical 5 mg/ml once a day
[12] = mastiff pup, topical 10 mg/ml daily, after 5 days

Compound: AcF-[OPdChaWR] [PMX53]
- rise in circulating TNFα associated with a dermal Arthus reaction [1]: inhibition of the rise in circulating TNFα
- breathing and recovery time after episodes of dyspnoea ([2]; 0.3 mg/kg single daily subcutaneous injections for six days): moderate to marked improvement
- general breathing pattern and recovery time ([2]; 0.3 mg/kg subcutaneous twice-weekly injections): not as good during twice weekly treatments as it had been following daily injections, although recovery time was comparable
- playfulness, general activity level, appetite and general demeanour ([2]; together with reduction in oral cortisone dosage): marked improvement
- allergic dermatitis ([3]; kelpie dog, 1 mg/kg/day PO): marked improvement in the dog's allergic dermatitis, which had apparently resolved completely
- time to resolution of sores on the tail ([3]; old dog, severe atopic dermatitis, topical 5 mg/ml in 50% propylene glycol:50% water once a day): ≤ 3 days
- gait ([3]; old dog, after treatment, initially very stilted gait): able to walk and trot freely
- eyes (keratoconjunctivitis sicca) ([3]; old dog, eye-drop formulation 5 mg/ml in 30% polyethylene glycol:70% normal saline): improved to the point of being essentially normal in appearance
- itching [3, 11]: no signs of itching
- thickening of the skin over the stifle and ischial tuberosity [3, 11]: resolved noticeably
- severe allergic dermatitis (presumed flea allergy) ([3]; second dog, 0.3 mg/kg s.c. once daily, FIG. 4): completely resolved
- pathology index associated with a dermal Arthus reaction [4]: reduction of the pathology index
- vascular leakage associated with a dermal Arthus reaction [5]: inhibition of the vascular leakage
- irritation at the site of injection [6]: no evidence of irritation
- discomfort on injection ([6]; 0.3 mg/kg): No discomfort was noted
- haematology and biochemistry abnormalities ([6]; 0.3 mg/kg): No abnormalities were detected
- binding to the equine receptor [7]: binds less effectively
- eyelid inflammation / trichiasis ([8]; mastiff pup, eye drops 10 mg/ml once daily, over 5 days): inflammation resolved to the point that the trichiasis was relieved
- inflammation in the skin (head lesions) [8, 12]: inflammation in the skin was reduced
- mites in scrapings taken from the lesion [8, 12]: mites were still present
- inflammatory response in the skin ([8]; two dogs with demodectic dermatitis, 0.3 mg/kg s.c. for 13 days): significant reduction in the inflammatory response in the skin
- signs of drug toxicity [9]: no signs of drug toxicity
- binding to the feline C5a receptor [10]: bind well

Compound: CC(C)(C)NCC(O)c1cc(O)cc(O)c1 (centres unmarked) [terbutaline, reference compound]
- response of respiratory clinical signs to bronchodilators [2]: responded rapidly

Compound: Prednisolone sodium succinate [reference compound]
- respiratory effort ([2]; 1200 mg in 30 ml instilled into the trachea, within 24 hours): rapid and marked improvement in respiratory effort

Compound: CC(C)(C)NCC(O)c1ccc(O)c(CO)c1 (centres unmarked) [Ventolin, albuterol, reference compound]
- response of respiratory clinical signs to bronchodilators [2]: responded rapidly
